We go through 35 molecules from PMC11995724, “Antibiotic target discovery by integrated phenotypic and activity-based profiling of electrophilic fragments” (Cell chemical biology, 2025).

Where a name gives a salt, the structure may show the parent alone.

The nature of this data set: in vitro. The conditions noted are these: human, hek293t cells.
Consider `CC1(C)CN(C(=O)CCl)CCO1` [6-C05, 2-chloro-1-(2,2-dimethylmorpholin-4-yl)ethan-1-one], for which the viability at 48 h, 25 µM turned out to be 2.63%.
The figure for `Cc1nn(C)c(C)c1C=C(C#N)C(=O)Nc1ccccc1F` [9-I07, 2-cyano-N-(2-fluorophenyl)-3-(1,3,5-trimethyl-1H-pyrazol-4-yl)prop-2-enamide] is 122%; for `N#CC(=Cc1cccc(F)c1F)C(=O)NCc1ccccc1` [8-B06, N-benzyl-2-cyano-3-(2,3-difluorophenyl)prop-2-enamide] it is 27.1%; for `C=CC(=O)N1CSCC1C(=O)N1CCOCC1` (centres unmarked) [2-N21, 1-[4-(morpholine-4-carbonyl)-1,3-thiazolidin-3-yl]prop-2-en-1-one] it is 74.9%.
On to `C=CC(=O)N(Cc1c(C)cc(Cl)cc1C)CC1COCCO1` (centres unmarked) [1-J09, N-[(4-chloro-2,6-dimethylphenyl)methyl]-N-[(1,4-dioxan-2-yl)methyl]prop-2-enamide], for which the viability at 48 h, 25 µM was 81.4%.
Consider `CCC(=O)Nc1ccc(C(=O)CCl)cc1` [10-C03, N-[4-(2-chloroacetyl)phenyl]propanamide], for which the viability at 48 h, 25 µM is 74.1%.
For `CNC(=O)c1cc(OC2CCN(C(=O)C(C)Cl)C2)ccn1` (centres unmarked) [7-G03, 4-{[1-(2-chloropropanoyl)pyrrolidin-3-yl]oxy}-N-methylpyridine-2-carboxamide], the viability at 48 h, 25 µM was 111%.
Regarding `CC(Cl)C(=O)NCC1CC(=O)N(c2ccccc2)C1` (centres unmarked) [7-O20, 2-chloro-N-[(5-oxo-1-phenylpyrrolidin-3-yl)methyl]propanamide], the viability at 48 h, 25 µM stood at 85.1%.
Turning to `O=C(CCl)Nc1ccccc1Cc1ccccc1` [4-N22, N-(2-benzylphenyl)-2-chloroacetamide], the viability at 48 h, 25 µM came out at 0.906%.
As to `CC1CC(C)CN(S(=O)(=O)c2ccc(NC(=O)CCl)cc2)C1` (centres unmarked) [4-K16, 2-chloro-N-{4-[(3,5-dimethylpiperidin-1-yl)sulfonyl]phenyl}acetamide], the viability at 48 h, 25 µM is 0.265%.
For the molecule `C=CC(=O)N(C)CC(=O)Nc1ccc(C)c(S(=O)(=O)N(C)C)c1` [3-G04, N-({[3-(dimethylsulfamoyl)-4-methylphenyl]carbamoyl}methyl)-N-methylprop-2-enamide], the viability at 48 h, 25 µM came to 78.3%.
The figure for `C=CC(=O)NCc1ncc(C)o1` [2-P21, N-[(5-methyl-1,3-oxazol-2-yl)methyl]prop-2-enamide] is 48.8%; for `COc1ccc(NC(=O)N2CCSSCC2)cc1` [10-H21, N-(4-methoxyphenyl)-1,2,5-dithiazepane-5-carboxamide] it is 103%.
The figure for `Cc1cccc(Cl)c1CCCNC(=O)CCl` [7-F04, 2-chloro-N-[3-(2-chloro-6-methylphenyl)propyl]acetamide] is 0.614%; for `CC(Cl)C(=O)NCCC1=CCCCCC1` (centres unmarked) [5-N19, 2-chloro-N-[2-(cyclohept-1-en-1-yl)ethyl]propanamide] it is 120%.
Regarding `CC(C)NC(=O)C(C#N)=Cc1cccc(O)c1` [8-A22, 2-cyano-3-(3-hydroxyphenyl)-N-(propan-2-yl)prop-2-enamide], the viability at 48 h, 25 µM came out at 67.3%.
Next, `C=CC(=O)NCC1(c2ccnn2C)CC1` [2-P15, N-{[1-(1-methyl-1H-pyrazol-5-yl)cyclopropyl]methyl}prop-2-enamide]: 78.8%; `C=CC(=O)NCCc1cnc2c(Cl)cnn2c1` [1-L06, N-(2-{3-chloropyrazolo[1,5-a]pyrimidin-6-yl}ethyl)prop-2-enamide]: 74.5%.
Turning to `CC(Cl)C(=O)NC(C)c1ccc(Cl)cc1Cl` (centres unmarked) [5-M15, 2-chloro-N-[1-(2,4-dichlorophenyl)ethyl]propanamide], the viability at 48 h, 25 µM worked out at 69%.
Take `COc1ccc(C=C(C#N)C(=O)Nc2ccc3c(c2)OCCO3)cc1O` [8-H19, 2-cyano-N-(2,3-dihydro-1,4-benzodioxin-6-yl)-3-(3-hydroxy-4-methoxyphenyl)prop-2-enamide]: the viability at 48 h, 25 µM turned out to be 99.8%.
For the molecule `CC1CC(c2ccccc2F)N(C(=O)C(C)Cl)C1` (centres unmarked) [6-H18, 2-chloro-1-[2-(2-fluorophenyl)-4-methylpyrrolidin-1-yl]propan-1-one], the viability at 48 h, 25 µM came to 116%.
Next, `C=CC(=O)N1CCC[C@H]1c1ccon1` [2-G03, 1-[(2S)-2-(1,2-oxazol-3-yl)pyrrolidin-1-yl]prop-2-en-1-one]: 181%; `C=CC(=O)NCc1ccc(C(=O)N2CCOCC2)cc1` [1-L17, N-{[4-(morpholine-4-carbonyl)phenyl]methyl}prop-2-enamide]: 81.2%; `C=CC(=O)N1CCCC(S(=O)(=O)NC)C1` (centres unmarked) [3-D17, N-methyl-1-(prop-2-enoyl)piperidine-3-sulfonamide]: 67.5%.
As for `Cc1ccc(C2=NN(C(=O)CCl)C(c3cccs3)C2)cc1` (centres unmarked) [4-O22, 2-chloro-1-[3-(4-methylphenyl)-5-(thiophen-2-yl)-4,5-dihydro-1H-pyrazol-1-yl]ethan-1-one], the viability at 48 h, 25 µM is -0.0957%.
Regarding `C=CC(=O)N1CCC(C(=O)NCCn2c(=O)[nH]c3ccccc32)CC1` [3-J03, N-[2-(2-oxo-2,3-dihydro-1H-1,3-benzodiazol-1-yl)ethyl]-1-(prop-2-enoyl)piperidine-4-carboxamide], the viability at 48 h, 25 µM is 72.2%.
Regarding `CC(Cl)C(=O)N1CCN(C)C(c2nc(C3CC3)no2)C1` (centres unmarked) [7-I08, 2-chloro-1-[3-(3-cyclopropyl-1,2,4-oxadiazol-5-yl)-4-methylpiperazin-1-yl]propan-1-one], the viability at 48 h, 25 µM amounted to 84.4%.
Next, `C=CC(=O)N(CC)CC(=O)N1CCN(c2ccsc2C#N)CC1` [3-L05, N-{2-[4-(2-cyanothiophen-3-yl)piperazin-1-yl]-2-oxoethyl}-N-ethylprop-2-enamide]: 62.6%.
Next, `C=CC(=O)NCc1nc(C(=O)O)c(C)s1` [1-K03, 5-methyl-2-[(prop-2-enamido)methyl]-1,3-thiazole-4-carboxylic acid]: 80.8%; `C=CC(=O)NC1CCC(n2c(C)ccc2C)CC1` (centres unmarked) [2-E19, N-[4-(2,5-dimethyl-1H-pyrrol-1-yl)cyclohexyl]prop-2-enamide]: 71.1%.
For the molecule `CC(C)C(C)N(Cc1ccns1)C(=O)CCl` (centres unmarked) [5-M12, 2-chloro-N-(3-methylbutan-2-yl)-N-[(1,2-thiazol-5-yl)methyl]acetamide], the viability at 48 h, 25 µM came out at 9.67%.
Consider `O=C(CCl)N1CCN(CCOc2ccccc2)CC1` [4-H14, 2-chloro-1-[4-(2-phenoxyethyl)piperazin-1-yl]ethan-1-one hydrochloride], for which the viability at 48 h, 25 µM was 1.67%.
The figure for `COc1ccc(C=C(C#N)C(=O)Nc2ccccc2C)cc1O` [8-P15, 2-cyano-3-(3-hydroxy-4-methoxyphenyl)-N-(2-methylphenyl)prop-2-enamide] is 120%; for `C=CC(=O)N1CCC(C(=O)Nc2[nH]nc(C(F)(F)F)c2C)CC1` [1-O04, N-[4-methyl-3-(trifluoromethyl)-1H-pyrazol-5-yl]-1-(prop-2-enoyl)piperidine-4-carboxamide] it is 113%.
For the molecule `C=CC(=O)Nc1ccccc1C(=O)N(C)C(C)C` [3-H17, N-methyl-2-(prop-2-enamido)-N-(propan-2-yl)benzamide], the viability at 48 h, 25 µM amounted to 66.9%.
